Assay results reported in ChEMBL document CHEMBL1201862, “PubChem BioAssay data set” (2004).
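Results reflect a 48-hour exposure of cells in 96-well plates to compound at five concentrations. Here, GI50 denotes the concentration required for 50% inhibition of growth.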 Activity calls are given as the source filed them. Cut-off read from the data, not from the text of the source: active = GI50 up to about 1.1 µM and inactive = higher.

What was measured:
Assay in all cases: NCI anticancer screen, dose series, 48 h
[1] = system: 786-0
[2] = system: SNB-19
[3] = system: MOLT-4
[4] = system: COLO 205
[5] = system: SF-295
[6] = system: IGROV-1
[7] = system: U-251
[8] = system: A498
[9] = system: SW-620
[10] = system: OVCAR-4
[11] = system: A549
[12] = system: HCT-116
[13] = system: MCF7
[14] = system: NCI-H226
[15] = system: UACC-257
[16] = system: MDA-MB-435
[17] = system: HT-29
[18] = system: NCI/ADR-RES
[19] = system: RXF 393

Measured: GI50

O=C(/C=C/c1ccccc1)CCc1c(O)c2ccccc2oc1=O
inactive: [1] > 100 µM | [2] > 100 µM | [3] 27.7 µM | [4] 89.1 µM | [5] > 100 µM | [6] > 100 µM | [7] 50.9 µM | [8] 74.5 µM | [9] 53.8 µM | [10] 76.9 µM | [11] 83.8 µM | [12] 35.7 µM | [13] 60.4 µM | [14] > 100 µM | [15] > 100 µM | [16] 67.9 µM | [17] > 100 µM | [18] > 100 µM

O=C(CN1CCN(Cc2ccccc2)CC1)N1CCCn2c1nc1ccccc1c2=O
inactive: [1] > 100 µM | [2] > 100 µM | [3] > 100 µM | [4] > 100 µM | [5] > 100 µM | [6] > 100 µM | [7] > 100 µM | [8] > 100 µM | [9] > 100 µM | [10] > 100 µM | [11] > 100 µM | [12] > 100 µM | [13] > 100 µM | [14] 29.2 µM | [15] > 100 µM | [16] > 100 µM | [17] > 100 µM | [18] > 100 µM

Oc1ccc(-c2nc3ccc(F)cc3s2)cc1
inactive: [1] 18.5 µM | [2] 19.3 µM | [3] 27 µM | [4] 16.2 µM | [5] 19.1 µM | [6] 16.9 µM | [7] 19.2 µM | [19] 25.3 µM | [9] 29.9 µM | [10] 23 µM | [11] 19.8 µM | [12] 18.2 µM | [13] 17.5 µM | [14] 18.6 µM | [15] 17.1 µM | [16] 20.4 µM | [17] 15 µM | [18] 21.1 µM

OCC1OC(NC(=S)NCSCCC(F)(F)C(F)(F)C(F)(F)C(F)(F)C(F)(F)C(F)(F)F)C(O)C(O)C1O (stereo not given)
inactive: [1] 45.8 µM | [2] 36.6 µM | [3] 21.5 µM | [4] 77.4 µM | [5] 23.1 µM | [6] 31.8 µM | [7] 17.5 µM | [8] 1.77 µM | [19] 35.2 µM | [9] 39.4 µM | [10] > 100 µM | [11] 58.1 µM | [12] 34.4 µM | [13] 40.8 µM | [15] 46.6 µM | [16] 16.4 µM | [17] 34.2 µM | [18] > 100 µM

Nc1n[nH]c2nc3ccc(C(F)(F)F)cc3nc12
inactive: [1] 21 µM | [2] 32.2 µM | [3] 43.5 µM | [4] 16 µM | [5] 24.5 µM | [6] 21.9 µM | [7] 39.5 µM | [8] 33 µM | [19] 16.4 µM | [9] 19.3 µM | [10] 42.6 µM | [11] 30.5 µM | [12] 24.7 µM | [13] 15.3 µM | [15] 21.8 µM | [16] 64.9 µM | [17] 29.8 µM | [18] 33.4 µM

CC(=O)C(=NNc1ccc(-n2c(C)nc3ccccc3c2=O)cc1)C(C)=O
inactive: [1] > 100 µM | [2] > 100 µM | [3] 22.9 µM | [4] > 100 µM | [5] > 100 µM | [6] > 100 µM | [7] > 100 µM | [8] > 100 µM | [9] > 100 µM | [11] > 100 µM | [12] > 100 µM | [13] > 100 µM | [14] 80.2 µM | [15] > 100 µM | [16] > 100 µM | [17] > 100 µM | [18] > 100 µM

COc1ccc2c(C)cc(C)nc2n1
inactive: [1] > 100 µM | [2] > 100 µM | [3] > 100 µM | [4] > 100 µM | [5] > 100 µM | [6] > 100 µM | [7] > 100 µM | [8] > 100 µM | [19] > 100 µM | [9] > 100 µM | [10] > 100 µM | [11] > 100 µM | [12] > 100 µM | [13] > 100 µM | [15] > 100 µM | [16] > 100 µM | [17] > 100 µM | [18] > 100 µM

CC1(C)CC[C@]2(C(=O)O)CC[C@]3(C)C(=CCC4=C5C[C@H](O)[C@H](O)[C@@](C)(CO)[C@@]5(C)CC[C@]43C)[C@@H]2C1
inactive: [1] 31.8 µM | [2] 16 µM | [3] 47.3 µM | [4] 15.2 µM | [5] 33.7 µM | [6] 36.9 µM | [7] 48.2 µM | [8] 17.8 µM | [9] 95.1 µM | [10] 36.7 µM | [11] 38.5 µM | [12] 31.3 µM | [13] 44.6 µM | [15] 71 µM | [16] 62.1 µM | [17] 41.5 µM | [18] 43.4 µM

Cc1c(C)c(S(=O)(=O)N(CCCCN)OCCCN)c(C)c2c1OC(C)(C)CC2
inactive: [1] 13.7 µM | [2] 15.1 µM | [3] 19.6 µM | [4] 31.2 µM | [5] 17.7 µM | [6] 4.51 µM | [7] 21.9 µM | [8] 16 µM | [9] 31.8 µM | [10] 13.8 µM | [11] 19.2 µM | [12] 16.6 µM | [13] 26.6 µM | [14] 13.1 µM | [15] 22.2 µM | [16] 16.5 µM | [17] 17.6 µM | [18] 74.6 µM

C=C[C@@H]1C[C@]2(C(=O)OC)Cc3nc4ccccc4nc3CC(C(=O)OC)=C2O1
inactive: [1] > 100 µM | [2] > 100 µM | [3] 42.5 µM | [4] 35.2 µM | [5] 93.5 µM | [6] 61.2 µM | [7] 92.7 µM | [8] > 100 µM | [19] > 100 µM | [9] 58.5 µM | [10] > 100 µM | [11] > 100 µM | [12] > 100 µM | [13] 40.6 µM | [15] 76.7 µM | [16] 47.8 µM | [17] > 100 µM | [18] > 100 µM

CC(=O)OCC1OC(N2C(=O)/C(=C\c3ccc(Cl)cc3)C(N)=Nc3ccccc32)C(OC(C)=O)C(OC(C)=O)C1OC(C)=O (stereo not given)
inactive: [1] 17.7 µM | [2] 37.8 µM | [3] 6.43 µM | [4] 12.1 µM | [5] 38.8 µM | [6] 19.6 µM | [7] 14.6 µM | [8] 44.6 µM | [19] 4.34 µM | [9] 23.2 µM | [10] 20.4 µM | [11] 27.8 µM | [12] 16.6 µM | [13] 11.8 µM | [15] 23.4 µM | [16] 16 µM | [17] 25.7 µM | [18] 51.1 µM

CN(C)CCCNC(=O)c1cc(NC(=O)c2cc(NC(=O)CCCn3c4ccccc4c4ccccc43)cn2C)cn1C
inactive: [1] 13.5 µM | [2] 10.5 µM | [3] 2.02 µM | [4] 2.15 µM | [5] 18.5 µM | [6] 26.5 µM | [7] 11.4 µM | [8] 19.3 µM | [19] 12.6 µM | [9] 7.94 µM | [10] 15.5 µM | [11] 17.5 µM | [12] 3.27 µM | [13] 5.89 µM | [15] 15.9 µM | [16] 9.29 µM | [17] 2.59 µM | [18] 19.6 µM

CC(C)NC(=O)OCC[S+]([O-])c1c(Cl)c(Cl)nn1C (stereo not given)
inactive: [1] 24.9 µM | [2] > 100 µM | [3] 34.8 µM | [4] 21.2 µM | [5] > 100 µM | [6] 37.9 µM | [7] 33.2 µM | [8] > 100 µM | [9] 36.2 µM | [10] 49.8 µM | [11] > 100 µM | [12] 33.3 µM | [13] 29.4 µM | [14] > 100 µM | [15] > 10 µM | [16] 22.3 µM | [17] 34 µM | [18] 42.8 µM

CC(C)=C1C(=O)c2c(Cl)sc(Cl)c2C1=O
inactive: [1] 22.9 µM | [3] 36.6 µM | [4] 20.9 µM | [5] 39.5 µM | [6] 21.9 µM | [7] 22.2 µM | [8] > 100 µM | [9] 28.7 µM | [10] 14.5 µM | [11] 26.1 µM | [12] 17.2 µM | [13] 41.2 µM | [14] 35.6 µM | [15] 21.3 µM | [16] 18.6 µM | [17] 28.8 µM | [18] 24 µM

Cc1nc(N)c(N2CCNCC2)c(O)n1
inactive: [1] > 100 µM | [2] > 100 µM | [3] > 100 µM | [4] > 100 µM | [5] > 100 µM | [7] > 100 µM | [8] > 100 µM | [9] > 100 µM | [11] > 100 µM | [12] > 100 µM | [13] > 100 µM | [14] > 100 µM | [15] > 100 µM | [16] > 100 µM | [17] > 100 µM | [18] > 100 µM
